The target of one experiment is BACE1 (Homo sapiens, UniProt P56817). In words: In vitro enzymatic BACE FRET assay. Type of experiment: biochemical. The method, then: In Vitro Enzymatic BACE FRET (fluorescence resonance energy transfer) Assay (Enzyme Assay data in the Example Table I)
The assay buffer used in this screen is 0.05 M acetate, pH 4.2, 10% DMSO final, 100 uM genapol (which is a nonionic detergent, below its Critical Micelle Concentration). […] This assay is effectively started by the addition of FRET substrate (50 nM) and the combination is incubated for one hour. The FRET assay is terminated with by addition of Tris buffer, which raises the pH to neutrality, and the fluorescence is determined. The FRET substrate is a peptide with commercially available fluorophore and quencher, on opposite sides of the BACE cleavage site. Proteolytic cleavage of the FRET substrate releases quenching of fluorescence (excitation […] and […]).

For experiment [1], the system named is Aβ40 in conditioned medium of cells expressing amyloid precursor protein. In words: In vitro BACE cell-based assay (HEK cell assay, Aβ40 sandwich ELISA). The note with it: Homo sapiens, HEK293; average IC50; Aβ40 after 24 h incubation. (In general: ELISA stands for enzyme-linked immunosorbent assay.)

Chain of BACE1 (P56817 46-501): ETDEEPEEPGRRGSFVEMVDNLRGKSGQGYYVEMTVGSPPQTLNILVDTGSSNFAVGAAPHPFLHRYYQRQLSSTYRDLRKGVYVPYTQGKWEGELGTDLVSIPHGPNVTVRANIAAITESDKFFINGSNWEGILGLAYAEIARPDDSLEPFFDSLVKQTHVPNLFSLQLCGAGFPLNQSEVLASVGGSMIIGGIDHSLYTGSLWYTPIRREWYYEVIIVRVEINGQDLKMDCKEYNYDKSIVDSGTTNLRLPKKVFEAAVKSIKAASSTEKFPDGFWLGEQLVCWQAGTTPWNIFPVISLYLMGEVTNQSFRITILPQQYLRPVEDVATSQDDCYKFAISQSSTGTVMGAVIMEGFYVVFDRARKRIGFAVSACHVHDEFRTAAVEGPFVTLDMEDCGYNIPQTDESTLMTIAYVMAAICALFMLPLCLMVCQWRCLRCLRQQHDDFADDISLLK

As a reminder, the IC50 is the concentration needed to halve the response being measured. As for `NC1=NC2(c3cc(-c4cccnc4F)ccc3Oc3c2cc(-c2ccnc(F)c2)nc3F)c2ccccc21` (racemic) [Example 5e, 1-fluoro-7-(2-fluoropyridin-3-yl)-3-(2-fluoropyridin-4-yl)spiro[chromeno[2,3-c]pyridine-5,1′-isoindol]-3′-amine], the IC50 came to 1 nM on BACE1 and 8 nM in experiment [1]. For the molecule `NC1=NC2(c3cc(-c4cccnc4F)ccc3Oc3c2cc(C2=CCOCC2)nc3F)c2ccccc21` (racemic) [Example 6, 3-(3,6-dihydro-2H-pyran-4-yl)-1-fluoro-7-(2-fluoropyridin-3-yl)spiro[chromeno[2,3-c]pyridine-5,1′-isoindol]-3′-amine], the IC50 at BACE1 was 1 nM; in experiment [1] it was 3 nM. For `NC1=NC2(c3cc(-c4cccnc4F)ccc3Oc3c2cc(C2=CCCOC2)nc3F)c2ccccc21` (racemic) [Example 7, 3-(5,6-dihydro-2H-pyran-3-yl)-1-fluoro-7-(2-fluoropyridin-3-yl)spiro[chromeno[2,3-c]pyridine-5,1′-isoindol]-3′-amine], the half-maximal inhibitory concentration (IC50) at BACE1 stood at 1 nM; in experiment [1], 13 nM. Taken in the same sequence, the figures for `NC1=NC2(c3cc(-c4cccnc4F)ccc3Oc3c2cc(N2CCOCC2)nc3F)c2ccccc21` (racemic) [Example 8, 1-fluoro-7-(2-fluoropyridin-3-yl)-3-morpholinospiro[chromeno[2,3-c]pyridine-5,1′-isoindol]-3′-amine] were 4.2 nM and 14 nM.

As to `NC1=NC2(c3cc(-c4cccnc4F)ccc3Oc3c2cc(N2CCC(F)(F)C2)nc3F)c2ccccc21` (racemic) [Example 9, 3-(3,3-difluoropyrrolidin-1-yl)-1-fluoro-7-(2-fluoropyridin-3-yl)spiro[chromeno[2,3-c]pyridine-5,1′-isoindol]-3′-amine], the figures for the IC50 (at BACE1; in experiment [1]) were 5.3 nM and 27 nM, respectively. As for `NC1=NC2(c3cc(-c4cccnc4F)ccc3Oc3cnc(-c4ccnc(F)c4)cc32)c2ccccc21` (racemic) [Example 10, 7-(2-fluoropyridin-3-yl)-3-(2-fluoropyridin-4-yl)spiro[chromeno[2,3-c]pyridine-5,1′-isoindol]-3′-amine], the IC50 amounted to 1 nM on BACE1 and 12 nM in experiment [1]. On the same counts, the results for `NC1=NC2(c3cc(Br)ccc3Oc3cnc(Cl)cc32)c2ccccc21` (racemic) [Example 10c, 7-bromo-3-chlorospiro[chromeno[2,3-c]pyridine-5,1′-isoindol]-3′-amine] are 6940 nM and 64.5 nM. On the same counts, the results for `NC1=NC2(c3cc(-c4cccnc4F)ccc3Oc3cnc(Cl)cc32)c2ccccc21` (racemic) [Example 10d, 3-chloro-7-(2-fluoropyridin-3-yl)spiro[chromeno[2,3-c]pyridine-5,1′-isoindol]-3′-amine] are 36 nM and 140 nM.

For `NC1=NC2(c3cc(-c4cccnc4F)ccc3Oc3cnc(C4=CCOCC4)cc32)c2ccccc21` (racemic) [Example 11, 3-(3,6-dihydro-2H-pyran-4-yl)-7-(2-fluoropyridin-3-yl)spiro[chromeno[2,3-c]pyridine-5,1′-isoindol]-3′-amine], the IC50 came out at 3 nM on BACE1 and 12 nM in experiment [1].

As to `NC1=NC2(c3cc(-c4cccnc4F)ccc3Oc3cnc(C4CCOCC4)cc32)c2ccccc21` (racemic) [Example 12, 7-(2-fluoropyridin-3-yl)-3-(tetrahydro-2H-pyran-4-yl)spiro[chromeno[2,3-c]pyridine-5,1′-isoindol]-3′-amine], the concentration for half-maximal inhibition (IC50) came out at 4 nM at BACE1 and 13 nM in experiment [1]. On the same counts, the results for `CC(C)(C)C#Cc1cc2c(cn1)Oc1ccc(-c3cccnc3F)cc1C21N=C(N)c2ccccc21` (racemic) [Example 13, 3-(3,3-dimethylbut-1-ynyl)-7-(2-fluoropyridin-3-yl)spiro[chromeno[2,3-c]pyridine-5,1′-isoindol]-3′-amine] are 6 nM and 70 nM.

`NC1=NC2(c3cc(-c4cccnc4F)ccc3Oc3c2cc(-c2ccnc(F)c2)nc3F)c2ncccc21` (racemic) [Example 15, 1-fluoro-7-(2-fluoropyridin-3-yl)-3-(2-fluoropyridin-4-yl)spiro[chromeno[2,3-c]pyridine-5,7′-pyrrolo[3,4-b]pyridin]-5′-amine]: the IC50 was 1 nM at BACE1 and 11 nM in experiment [1]. `NC1=NC2(c3ccccc3O1)c1cc(-c3cccnc3F)ccc1Oc1cnc(C3=CCCOC3)cc12` (racemic) [Example 18, 3′-(5,6-dihydro-2H-pyran-3-yl)-7′-(2-fluoropyridin-3-yl)spiro[benzo[e][1,3]oxazine-4,5′-chromeno[2,3-c]pyridin]-2-amine]: the values for the IC50 (on BACE1; in experiment [1]) were 2 nM and 122 nM, respectively. Taken in the same sequence, the figures for `NC1=NC2(c3cc(-c4cccnc4F)ccc3Oc3cnc(Cl)cc32)c2ncccc2O1` (racemic) [Example 21, 3-chloro-7-(2-fluoropyridin-3-yl)spiro[chromeno[2,3-c]pyridine-5,4′-pyrido[2,3-e][1,3]oxazin]-2′-amine] were 370 nM and over 10000 nM. On the same counts, the results for `NC1=NC2(c3cc(-c4cccnc4F)ccc3Oc3cnc(-c4ccnc(F)c4)cc32)c2cccnc2O1` (racemic) [Example 24, 7-(2-fluoropyridin-3-yl)-3-(2-fluoropyridin-4-yl)spiro[chromeno[2,3-c]pyridine-5,4-pyrido[3,2-e][1,3]oxazin]-2′-amine] are 1.8 nM and 320 nM. As for `NC1=N[C@@]2(c3cc(-c4cccnc4F)ccc3Oc3c2cc(-c2ccnc(F)c2)nc3F)c2ccccc21` (single isomer, unassigned) [Example 5-A], the IC50 on BACE1 is 18.2 nM; in experiment [1], 1860 nM. On the same counts, the results for `NC1=N[C@]2(c3cc(-c4cccnc4F)ccc3Oc3c2cc(-c2ccnc(F)c2)nc3F)c2ccccc21` (single isomer, unassigned) [Example 5-B] are 0.6 nM and 11 nM. As for `NC1=N[C@@]2(c3cc(-c4cccnc4F)ccc3Oc3c2cc(C2=CCCOC2)nc3F)c2ccccc21` (single isomer, unassigned) [Example 7-A], the results for the IC50 (at BACE1; in experiment [1]) were 78 nM and 336 nM, respectively.

Regarding `NC1=N[C@]2(c3cc(-c4cccnc4F)ccc3Oc3cnc(-c4cccnc4F)cc32)c2ccccc21` (single isomer, unassigned) [Example 10-C], the half-maximal inhibitory concentration (IC50) is 900 nM at BACE1 and over 10000 nM in experiment [1].

For `NC1=N[C@@]2(c3cc(-c4cccnc4F)ccc3Oc3cnc(-c4cccnc4F)cc32)c2ccccc21` (single isomer, unassigned) [Example 10-D], the IC50 (at BACE1; in experiment [1]) was over 10000 nM throughout. For the molecule `NC1=N[C@]2(c3cc(-c4cccnc4F)ccc3Oc3c2cc(-c2ccnc(F)c2)nc3F)c2cnccc21` (single isomer, unassigned) [Example 14-A], the IC50 on BACE1 was 0.4 nM; in experiment [1] it was 8 nM. As to `NC1=N[C@@]2(c3cc(-c4cccnc4F)ccc3Oc3c2cc(-c2ccnc(F)c2)nc3F)c2cnccc21` (single isomer, unassigned) [Example 14-B], the IC50 at BACE1 was found to be 107 nM; in experiment [1], 2460 nM.

Regarding `NC1=NC2(c3ccccc3O1)c1cc(-c3cccnc3F)ccc1Oc1cnc(-c3ccnc(F)c3)cc12` (stereo not drawn) [Example 19, 7′-(2-fluoropyridin-3-yl)-3′-(2-fluoropyridin-4-yl)spiro[benzo[e][1,3]oxazine-4,5′-chromeno[2,3-c]pyridin]-2-amine], the IC50 on BACE1 is 2 nM.

The values are drawn from US8921363B2, “Derivatives of 1 H-isoindol-3-amine, 1 H-iso-aza-indol-3amine, 3,4-dihydroisoquinolin-1-amine, and 1,4-dihydroisoquinolin-3-amine as beta-secretase inhibitors” (Amgen Inc., priority 2010, dated 2014).
